This is an account of results in patent US8450313B2, “2,3-diaryl- or heteroaryl-substituted 1,1,1-trifluoro-2-hydroxypropyl compounds” (Hoffmann-La Roche Inc., priority 2009, dated 2013).

This test addresses T1, full length human recombinant glucocorticoid receptor (Homo sapiens, UniProt P04150).
T1 construct: It contains some partially purified full length human recombinant glucocorticoid receptor; purchased Panvera/Invitrogen PV4302
T1 sequence (P04150 1-777): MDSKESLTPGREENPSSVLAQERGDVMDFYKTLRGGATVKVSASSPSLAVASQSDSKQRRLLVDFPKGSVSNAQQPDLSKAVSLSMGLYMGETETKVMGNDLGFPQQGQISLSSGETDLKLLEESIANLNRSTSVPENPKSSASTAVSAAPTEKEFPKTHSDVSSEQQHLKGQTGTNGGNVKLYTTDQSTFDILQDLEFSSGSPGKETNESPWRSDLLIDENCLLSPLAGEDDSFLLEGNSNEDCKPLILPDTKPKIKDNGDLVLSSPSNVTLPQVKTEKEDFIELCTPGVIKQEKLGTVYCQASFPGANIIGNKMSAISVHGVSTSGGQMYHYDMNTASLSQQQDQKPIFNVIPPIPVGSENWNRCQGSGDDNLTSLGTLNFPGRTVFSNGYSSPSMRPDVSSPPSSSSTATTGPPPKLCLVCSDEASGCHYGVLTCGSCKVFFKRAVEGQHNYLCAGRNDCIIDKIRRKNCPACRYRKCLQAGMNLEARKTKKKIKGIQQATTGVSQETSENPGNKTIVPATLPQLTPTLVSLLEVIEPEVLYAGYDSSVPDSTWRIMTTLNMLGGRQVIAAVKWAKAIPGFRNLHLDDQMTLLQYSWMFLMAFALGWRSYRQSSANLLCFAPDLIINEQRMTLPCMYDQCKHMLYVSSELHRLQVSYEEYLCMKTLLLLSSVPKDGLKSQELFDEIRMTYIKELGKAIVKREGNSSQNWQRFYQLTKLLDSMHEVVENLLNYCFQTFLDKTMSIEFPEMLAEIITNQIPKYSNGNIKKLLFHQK
Briefly: Glucocorticoid Receptor Binding Assay (Glucocorticoid Receptor Competitor Assay far red kit, fluorescence polarization). Particulars: competition with fluorescent GR ligand Fluormone GS Far Red, 3 hours at 22° C., pH 7.4; Ki calculated from IC50 by Cheng-Prusoff. As to the method:
Glucocorticoid Receptor Binding Assay
The ability of the substances to bind to the glucocorticoid receptor was determined with the help of a commercial Glucocorticoid Receptor Competitor Assay far red kit provided by Panvera/Invitrogen (PV4302). This kit is used as provided by the supplier. It contains some partially purified full length human recombinant glucocorticoid receptor, a coactivator related GR stabilizing peptide, a tight-binding fluorescent GR ligand Fluormone™ GS Far Red as labeled tracer and a screening buffer. All reagents are prepared and the assay is run according to the recommendations of the kit manufacturer.
Briefly, the GR stabilizing peptide and the human recombinant glucocorticoid receptor are both diluted with the screening buffer (pH 7.4) and are gently mixed (no vortexing) just before the assay and kept on ice until use. The fluorescent-labeled ligand is also diluted with the screening buffer just before the assay and kept on ice until use. The substances to test are pre-diluted in pure DMSO then some water is added to get an intermediate 4.2% DMSO stock solution. Ten microliter of the intermediate stock solution is gently mixed with 5 μA of diluted fluorescent-labeled ligand and 5 μl of diluted human recombinant glucocorticoid receptor in a 384-well plate (low volume, ultraclear, glass plate from Greiner ref 788896). The plate is centrifuged, sealed and incubated for 3 hours at 22° C. in the dark. The polarized fluorescence is measured with a Zeiss-HTS reader or any equivalent equipment (610-660 nm).
All compounds were tested to determine IC50 in a serial dilution experiment. The concentration at which 50% inhibition of the fluorescent GR ligand Fluormone™ GS Far Red is obtained (the IC50) is determined after fitting with a sigmoidal dose-response model of a plot of the logarithm of the concentration versus percent inhibition measured for the different concentrations. Ki's were calculated from IC50 based on Cheng-Prusoff equation (Cheng, Y, Prusoff, W H (1973) Biochem Pharmacol 22, 3099-3108): Ki=IC50/[1+D/Kd] wherein D is the concentration of the fluorescent ligand and Kd is the binding constant for the fluorescent ligand binding to the receptor under the conditions used in the competition experiment.

In general, Ki refers to a dissociation constant, usually derived from enzyme kinetics or from competition with a known ligand. Regarding `COC(=O)CC1CCN(C(=O)c2ccc(Cl)c([C@H](C)[C@](O)(c3ccc4c(c3)N(C)C(=O)CO4)C(F)(F)F)c2)CC1` (relative stereo) [Example 19, (1-{4-Chloro-3-[3,3,3-trifluoro-2-hydroxy-1-methyl-2-(4-methyl-3-oxo-3,4-dihydro-2H-benzo[1,4]oxazin-6-yl)-propyl]-benzoyl}-piperidin-4-yl)-acetic acid methyl ester], the Ki was 214 nM.

On to `C[C@@H](c1ccc(-c2ccccc2C(=O)O)cc1Cl)[C@](O)(c1ccc2c(c1)N(C)C(=O)CO2)C(F)(F)F` (relative stereo) [Example 24, 3′-Chloro-4′-[3,3,3-trifluoro-2-hydroxy-1-methyl-2-(4-methyl-3-oxo-3,4-dihydro-2H-benzo[1,4]oxazin-6-yl)-propyl]-biphenyl-2-carboxylic acid], for which the inhibition constant Ki is 19.6 nM.

On to `C[C@@H](c1ccc(-c2ccc(CCC(=O)O)cc2)cc1Cl)[C@](O)(c1ccc2c(c1)N(C)C(=O)CO2)C(F)(F)F` (relative stereo) [Example 29, 3-{3′-Chloro-4′-[3,3,3-trifluoro-2-hydroxy-1-methyl-2-(4-methyl-3-oxo-3,4-dihydro-2H-benzo[1,4]oxazin-6-yl)-propyl]-biphenyl-4-yl}-propionic acid], for which the Ki was 7.5 nM.

`COC(=O)c1ccc(-c2ccc([C@H](C)[C@](O)(c3ccc4c(c3)N(C)C(=O)CO4)C(F)(F)F)c(Cl)c2)cc1Cl` (relative stereo) [Example 30, 3,3′-Dichloro-4′-[3,3,3-trifluoro-2-hydroxy-1-methyl-2-(4-methyl-3-oxo-3,4-dihydro-2H-benzo[1,4]oxazin-6-yl)-propyl]-biphenyl-4-carboxylic acid methyl ester]: the inhibitory constant (Ki) was 2 nM.

As to `C[C@@H](c1ccc(-c2ccc(C(=O)O)c(Cl)c2)cc1Cl)[C@](O)(c1ccc2c(c1)N(C)C(=O)CO2)C(F)(F)F` (relative stereo) [Example 31, 3,3′-Dichloro-4′-[3,3,3-trifluoro-2-hydroxy-1-methyl-2-(4-methyl-3-oxo-3,4-dihydro-2H-benzo[1,4]oxazin-6-yl)-propyl]-biphenyl-4-carboxylic acid], the inhibition constant (Ki) was 3.1 nM.

As for `C[C@@H](c1ccc(-c2ccc(F)c(C(=O)O)c2)cc1Cl)[C@](O)(c1ccc2c(c1)N(C)C(=O)CO2)C(F)(F)F` (relative stereo) [Example 32, 3′-Chloro-4-fluoro-4′-[3,3,3-trifluoro-2-hydroxy-1-methyl-2-(4-methyl-3-oxo-3,4-dihydro-2H-benzo[1,4]oxazin-6-yl)-propyl]-biphenyl-3-carboxylic acid], the inhibition constant (Ki) is 1.3 nM.

Take `COC(=O)c1ccc(-c2ccc([C@H](C)[C@](O)(c3ccc4c(c3)N(C)C(=O)CO4)C(F)(F)F)c(Cl)c2)c(F)c1` (relative stereo) [Example 33, 3′-Chloro-2-fluoro-4′-[3,3,3-trifluoro-2-hydroxy-1-methyl-2-(4-methyl-3-oxo-3,4-dihydro-2H-benzo[1,4]oxazin-6-yl)-propyl]-biphenyl-4-carboxylic acid methyl ester]: the Ki is 17.3 nM.

As for `COC(=O)c1ccc(-c2ccc([C@H](C)[C@](O)(c3ccc4c(c3)N(C)C(=O)CO4)C(F)(F)F)c(Cl)c2)cc1OC` (relative stereo) [Example 35, 3′-Chloro-3-methoxy-4′-[3,3,3-trifluoro-2-hydroxy-1-methyl-2-(4-methyl-3-oxo-3,4-dihydro-2H-benzo[1,4]oxazin-6-yl)-propyl]-biphenyl-4-carboxylic acid methyl ester], the inhibition constant (Ki) was 2.6 nM.

`COc1cc(-c2ccc([C@H](C)[C@](O)(c3ccc4c(c3)N(C)C(=O)CO4)C(F)(F)F)c(Cl)c2)ccc1C(=O)O` (relative stereo) [Example 36, 3′-Chloro-3-methoxy-4′-[3,3,3-trifluoro-2-hydroxy-1-methyl-2-(4-methyl-3-oxo-3,4-dihydro-2H-benzo[1,4]oxazin-6-yl)-propyl]-biphenyl-4-carboxylic acid]: the Ki is 6.5 nM.

As to `C[C@@H](c1ccc(-c2ccc(CC(=O)O)cc2)cc1Cl)[C@](O)(c1ccc2c(c1)N(C)C(=O)CO2)C(F)(F)F` (relative stereo) [Example 37, {3′-Chloro-4′-[3,3,3-trifluoro-2-hydroxy-1-methyl-2-(4-methyl-3-oxo-3,4-dihydro-2H-benzo[1,4]oxazin-6-yl)-propyl]-biphenyl-4-yl}-acetic acid], the Ki was 6.6 nM.

On to `C[C@@H](c1ccc(-c2cc(C(=O)O)ccc2F)cc1Cl)[C@](O)(c1ccc2c(c1)N(C)C(=O)CO2)C(F)(F)F` (relative stereo) [Example 38, 3′-Chloro-6-fluoro-4′-[3,3,3-trifluoro-2-hydroxy-1-methyl-2-(4-methyl-3-oxo-3,4-dihydro-2H-benzo[1,4]oxazin-6-yl)-propyl]-biphenyl-3-carboxylic acid], for which the Ki is 1.8 nM.

Turning to `CCOC(=O)c1cc(-c2ccc([C@H](C)[C@](O)(c3ccc4c(c3)N(C)C(=O)CO4)C(F)(F)F)c(Cl)c2)ccc1Cl` (relative stereo) [Example 39, 4,3′-Dichloro-4′-[3,3,3-trifluoro-2-hydroxy-1-methyl-2-(4-methyl-3-oxo-3,4-dihydro-2H-benzo[1,4]oxazin-6-yl)-propyl]-biphenyl-3-carboxylic acid ethyl ester], the Ki was 0.7 nM.

`C[C@@H](c1ccc(-c2cccc(CC(=O)O)c2)cc1Cl)[C@](O)(c1ccc2c(c1)N(C)C(=O)CO2)C(F)(F)F` (relative stereo) [Example 41, {3′-Chloro-4′-[3,3,3-trifluoro-2-hydroxy-1-methyl-2-(4-methyl-3-oxo-3,4-dihydro-2H-benzo[1,4]oxazin-6-yl)-propyl]-biphenyl-3-yl}-acetic acid]: the Ki is 1.5 nM.

`C[C@@H](c1ccc(C(=O)O)cc1Cl)[C@](O)(c1ccc2c(c1)N(C)C(=O)CO2)C(F)(F)F` (relative stereo) [Example 43, 3-Chloro-4-[3,3,3-trifluoro-2-hydroxy-1-methyl-2-(4-methyl-3-oxo-3,4-dihydro-2H-benzo[1,4]oxazin-6-yl)-propyl]-benzoic acid]: the Ki is 261 nM.

With `C[C@@H](c1ccc(Oc2ccc(CC(=O)O)cc2)cc1Cl)[C@](O)(c1ccc2c(c1)N(C)C(=O)CO2)C(F)(F)F` (relative stereo) [Example 44, (4-{3-Chloro-4-[3,3,3-trifluoro-2-hydroxy-1-methyl-2-(4-methyl-3-oxo-3,4-dihydro-2H-benzo[1,4]oxazin-6-yl)-propyl]-phenoxy}-phenyl)-acetic acid], the Ki was 3.2 nM.

On to `COC(=O)c1ccc(-c2ccc([C@H](C)[C@](O)(c3cc(F)c4c(c3)N(C)C(=O)CO4)C(F)(F)F)c(Cl)c2)cc1F` (relative stereo) [Example 45, 3′-Chloro-3-fluoro-4′-[3,3,3-trifluoro-2-(8-fluoro-4-methyl-3-oxo-3,4-dihydro-2H-benzo[1,4]oxazin-6-yl)-2-hydroxy-1-methyl-propyl]-biphenyl-4-carboxylic acid methyl ester], for which the inhibition constant (Ki) is 2.1 nM.

In the case of `C[C@@H](c1ccc(-c2ccc(C(=O)O)c(F)c2)cc1Cl)[C@](O)(c1cc(F)c2c(c1)N(C)C(=O)CO2)C(F)(F)F` (relative stereo) [Example 46, 3′-Chloro-3-fluoro-4′-[3,3,3-trifluoro-2-(8-fluoro-4-methyl-3-oxo-3,4-dihydro-2H-benzo[1,4]oxazin-6-yl)-2-hydroxy-1-methyl-propyl]-biphenyl-4-carboxylic acid], the inhibition constant (Ki) was 10.9 nM.
